Structures can show the parent of a compound that is named as a salt.
Experiments:
[1] = system: phospho-S6RP (Ser 235/236) in RBE cells; test: Cellular Proliferation Protocol (cellular phospho-S6RP HTRF), RBE cells; assay type: cell-based; conditions: 6 hours treatment, RBE or SNU-1079 cells, cell line not given
Summary of the method: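 Phospho-S6RP (Ser 235/236) was quantified by HTRF in lysed RBE cells (2000/well) after a 6 h treatment at 37° C, with overnight antibody incubation at room temperature. IC50 values came from 4-parameter dose-response fits relative to DMSO vehicle.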

[2] = target: SRC (Homo sapiens, UniProt P12931); test: SRC Biochemical Assay Protocol (microfluidic mobility shift assay, FLPeptide4 substrate)
Summary of the method: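 Mobility-shift readout of phosphorylated FLPeptide4 (1.5 μM) after 90 min kinase reaction with 50 μM ATP and 0.26 nM SRC in pH 7.4 HEPES buffer. Compounds, tested 0.0017–100 μM, were preincubated 30 min with enzyme and peptide; IC50 from 4-parameter logistic fit versus neutral controls.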

[3] = system: RBE cells; test: Cell Viability Protocol (CellTiterGlo), RBE cells; assay type: cell-based; conditions: RBE or SNU-1079 cells, 72 or 120 hour, cell line and time not given
Summary of the method: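 After 72 h or 120 h compound exposure at 37° C, viability was read by CellTiterGlo as % of DMSO vehicle, with IC50 fitted by a 4-parameter curve. Cells had been seeded at 1200/well in 10% FBS RPMI 1640 and allowed 24 h before dosing.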

SRC, sequence (P12931 whole entry, species assumed): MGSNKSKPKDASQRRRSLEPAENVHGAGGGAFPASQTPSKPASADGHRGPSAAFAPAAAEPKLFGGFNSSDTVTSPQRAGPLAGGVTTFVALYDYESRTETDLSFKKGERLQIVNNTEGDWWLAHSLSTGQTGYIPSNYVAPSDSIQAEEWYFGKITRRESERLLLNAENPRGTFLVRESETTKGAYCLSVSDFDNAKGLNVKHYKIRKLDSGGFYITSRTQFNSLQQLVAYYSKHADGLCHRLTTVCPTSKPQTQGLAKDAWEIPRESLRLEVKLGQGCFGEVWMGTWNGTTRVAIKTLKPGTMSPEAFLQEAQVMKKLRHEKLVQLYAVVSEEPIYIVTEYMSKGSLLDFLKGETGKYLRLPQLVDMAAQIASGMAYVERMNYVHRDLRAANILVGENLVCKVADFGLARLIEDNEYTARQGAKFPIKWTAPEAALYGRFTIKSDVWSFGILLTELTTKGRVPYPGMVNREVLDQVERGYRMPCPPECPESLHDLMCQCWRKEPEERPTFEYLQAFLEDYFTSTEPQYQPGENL

Row | Structure (SMILES) | IC50 ([1]; 6 h) [nM] | IC50 [2] [nM] | IC50 [3] [nM] | IC50 [1] [nM]
1 | C=CC(=O)N1CC[C@@H](N2CC(C#Cc3c(-c4ccc(Oc5cccc(C)n5)c(OC)c4)c4c(N)ncnc4n3C)C2)[C@H](O)C1 [II-217, 1-((3R,4R)-4-(3-((4-amino-5-(3-methoxy-4-((6-methylpyridin-2-yl)oxy)phenyl)-7-methyl-7H-pyrrolo[2,3-d]pyrimidin-6-yl)ethynyl)azetidin-1-yl)-3-hydroxypiperidin-1-yl)prop-2-en-1-one] | 10 to 1000 | 10 to 1000 | 10 to 1000 | 
2 | C=CC(=O)N1CC[C@@H](N2CC(C#Cc3c(-c4ccc(Oc5cccc(C)n5)c(Cl)c4)c4c(N)ncnc4n3C)C2)[C@@H](O)C1 [II-20] |  | 10 to 1000 | 10 to 1000 | 10 to 1000
3 | C=CC(=O)N1CC[C@H](N2CC(C#Cc3c(-c4ccc(Oc5cccc(C)n5)c(OC)c4)c4c(N)ncnc4n3C)C2)[C@H](F)C1 [II-309] | 10 to 1000 | 10 to 1000 | 10 to 1000 | 
4 | COc1cc(Oc2ccccn2)ccc1-c1c(C#C[C@@H]2[C@H]3CN(C(=O)/C=C/CN(C)C)C[C@@H]23)n(C)c2ncnc(N)c12 [II-227, (E)-1-((1R,5S,6s)-6-((4-amino-5-(2-methoxy-4-(pyridin-2-yloxy)phenyl)-7-methyl-7H-pyrrolo[2,3-d]pyrimidin-6-yl)ethynyl)-3-azabicyclo[3.1.0]hexan-3-yl)-4-(dimethylamino) but-2-en-1-one] | 10 to 1000 | 10 to 1000 | 10 to 1000 | 
5 | Cc1ccnc(Oc2ccc(-c3c(C#C[C@@H]4[C@H]5CN(C(=O)/C=C/CN(C)C)C[C@@H]45)n(C)c4ncnc(N)c34)cc2)c1 [II-241, (E)-1-((1R,5S,6s)-6-((4-amino-7-methyl-5-(4-((4-methylpyridin-2-yl)oxy)phenyl)-7H-pyrrolo[2,3-d]pyrimidin-6-yl)ethynyl)-3-azabicyclo[3.1.0]hexan-3-yl)-4-(dimethylamino) but-2-en-1-one] |  | 10 to 1000 | 10 to 1000 | 10 to 1000
6 | CN(C)CCC(=O)N1CCC(C#Cc2c(-c3ccc(Oc4ccccc4)cc3)c3c(N)ncnc3n2C)CC1 [II-188] | 10 to 1000 | 10 to 1000 | 10 to 1000 | 
7 | COCCN(C)C/C=C/C(=O)N1C[C@@H]2[C@@H](C#Cc3c(-c4ccc(Oc5cccc(C)n5)c(OC)c4)c4c(N)ncnc4n3C)[C@@H]2C1 [II-237, (E)-1-((1R,5S,6s)-6-((4-amino-5-(3-methoxy-4-((6-methylpyridin-2-yl)oxy)phenyl)-7-methyl-7H-pyrrolo[2,3-d]pyrimidin-6-yl)ethynyl)-3-azabicyclo[3.1.0]hexan-3-yl)-4-((2-methoxyethyl) (methyl)amino)but-2-en-1-one] | 10 to 1000 | 10 to 1000 | 10 to 1000 | 
8 | C=CC(=O)N1CCCC(C#Cc2c(-c3ccc(Oc4ccccc4)cc3)c3c(N)ncnc3n2C)CC1 (stereo not drawn) [II-178, 1-(4-((4-amino-7-methyl-5-(4-phenoxyphenyl)-7H-pyrrolo[2,3-d]pyrimidin-6-yl)ethynyl)azepan-1-yl)prop-2-en-1-one] | 10 to 1000 | 10 to 1000 | 10 to 1000 | 
9 | C/C=C/S(=O)(=O)N1CCC(N2CC(C#Cc3c(-c4ccc(Oc5ccccc5)cc4)c4c(N)ncnc4n3C)C2)CC1 [II-177, (E)-7-methyl-5-(4-phenoxyphenyl)-6-((1-(1-(prop-1-enylsulfonyl)piperidin-4-yl)azetidin-3-yl)ethynyl)-7H-pyrrolo[2,3-d]pyrimidin-4-amine] | 10 to 1000 | 10 to 1000 | 10 to 1000 | 
10 | C=CC(=O)N1CC2C(C#Cc3c(-c4cccc5c4OCO5)c4c(N)ncnc4n3C)C2C1 (stereo not drawn) [II-126] |  | ≤ 10 | 10 to 1000 | 10 to 1000
11 | Cn1c(C#CC2CCCN(C(=O)/C=C/CN3CCOCC3)CC2)c(-c2ccc(Oc3ccccc3)cc2)c2c(N)ncnc21 (stereo not drawn) [II-181, (E)-1-(4-((4-amino-7-methyl-5-(4-phenoxyphenyl)-7H-pyrrolo[2,3-d]pyrimidin-6-yl)ethynyl)azepan-1-yl)-4-morpholinobut-2-en-1-one] | 1000 to 10000 | 10 to 1000 | 1000 to 10000 | 
12 | C=CC(=O)N1CC[C@H](N2CC(C#Cc3c(-c4ccc(Cl)c(C)c4)c4c(N)ncnc4n3C(C)C)C2)[C@H](O)C1 [II-112] |  | ≤ 10 | 10 to 1000 | 10 to 1000
13 | C=CC(=O)N1CCC(C#Cc2c(-c3ccc(Oc4cccc(C)n4)cc3)c3c(N)ncnc3n2C(C)C)CC1 [Example I-23] | 10 to 1000 | 10 to 1000 | 10 to 1000 | 
14 | C=CC(=O)N1C[C@@H]2[C@@H](C#Cc3c(-c4ccc(Oc5cccc(C)n5)cc4OC)c4c(N)ncnc4n3CCCS(C)(=O)=O)[C@@H]2C1 [II-52] |  | 10 to 1000 | 1000 to 10000 | 10 to 1000
15 | C=CC(=O)N1CCC(N2CC(C#Cc3c(-c4ccc(Oc5ccccc5)cc4)c4c(N)ncnc4n3C)C2)C[C@@H]1COC (stereo partly drawn) [II-186, 1-((2R)-4-(3-((4-amino-7-methyl-5-(4-phenoxyphenyl)-7H-pyrrolo[2,3-d]pyrimidin-6-yl)ethynyl)azetidin-1-yl)-2-(methoxymethyl)piperidin-1-yl)prop-2-en-1-one] | ≤ 10 | ≤ 10 | ≤ 10 | 
16 | C=CC(=O)N1CCC(N2CC(C#Cc3c(-c4ccc(Oc5cccc(C)n5)cc4)c4c(N)ncnc4n3C)C2)C(O)C1 (stereo not drawn) [II-215, 1-(4-(3-((4-amino-7-methyl-5-(4-(6-methylpyridin-2-yloxy)phenyl)-7H-pyrrolo[2,3-d]pyrimidin-6-yl)ethynyl)azetidin-1-yl)-3-hydroxypiperidin-1-yl)prop-2-en-1-one] | 10 to 1000 | 10 to 1000 | 10 to 1000 | 
17 | C=CS(=O)(=O)N1CCC(N2CC(C#Cc3c(-c4ccc(Oc5ccccc5)c(OC)n4)c4c(N)ncnc4n3C)C2)CC1 [II-322] |  | ≤ 10 | 10 to 1000 | 10 to 1000
18 | C=CC(=O)N1CCC(N2CC(C#Cc3c(-c4ccc(Cl)c(C)n4)c4c(N)ncnc4n3C(C)C)C2)CC1 [II-326] |  | 10 to 1000 | 10 to 1000 | 10 to 1000
19 | C=CC(=O)N1CC[C@@H](N2CC(C#Cc3c(-c4ccc(Oc5ccsn5)cc4)c4c(N)ncnc4n3C)C2)[C@@H](O)C1 [II-12] | 10 to 1000 | 10 to 1000 | 10 to 1000 | 
20 | C=CC(=O)NC1CCC(C#Cc2c(-c3ccc(Oc4ccccc4)cc3)c3c(N)ncnc3n2C(C)C)CC1 (stereo not drawn) [Example I-20] | ≤ 10 | 10 to 1000 | 10 to 1000 | 
21 | C=CC(=O)N1CCC(N2CC(C#Cc3c(-c4ccc(Oc5ccccc5)c(OC)n4)c4c(N)ncnc4n3C)C2)CC1CO (stereo not drawn) [II-329] |  | 10 to 1000 | 10 to 1000 | 10 to 1000
22 | C=CC(=O)N1CCC(N2CC(C#Cc3c(-c4ccc(Cl)c(OC)n4)c4c(N)ncnc4n3C)C2)CC1CO (stereo not drawn) [II-319] |  | 10 to 1000 | 10 to 1000 | 10 to 1000
23 | C=CC(=O)N1CCC(N2CC(F)(C#Cc3c(-c4ccc(Oc5ccccc5)cc4)c4c(N)ncnc4n3C)C2)C(O)C1 (stereo not drawn) [III-1] | ≤ 10 | 10 to 1000 | ≤ 10 | 
24 | C=CC(=O)N1CC[C@H](N2CC(C#Cc3c(-c4cccc5c4OCO5)c4c(N)ncnc4n3C(C)C)C2)[C@H](F)C1 [II-110] |  | ≤ 10 | 10 to 1000 | ≤ 10
25 | C=CC(=O)N1C[C@@H]2[C@@H](C#Cc3c(-c4c(Cl)ccc5c4OCO5)c4c(N)ncnc4n3C)[C@@H]2C1 [II-38] |  | 10 to 1000 | 10 to 1000 | 10 to 1000
26 | C=CC(=O)N1C[C@@H]2[C@@H](C#Cc3c(-c4ccc(Oc5cccc(C)n5)c(OC)c4)c4c(N)ncnc4n3C(C)C)[C@@H]2C1 [II-219, 1-((1R,5S,6s)-6-((4-amino-7-isopropyl-5-(3-methoxy-4-((6-methylpyridin-2-yl)oxy)phenyl)-7H-pyrrolo[2,3-d]pyrimidin-6-yl)ethynyl)-3-azabicyclo[3.1.0]hexan-3-yl)prop-2-en-1-one] | ≤ 10 | ≤ 10 | ≤ 10 | 
27 | Cn1c(C#CC2CCCN(C(=O)/C=C/CN3CCCCC3)CC2)c(-c2ccc(Oc3ccccc3)cc2)c2c(N)ncnc21 (stereo not drawn) [II-180, (E)-1-(4-((4-amino-7-methyl-5-(4-phenoxyphenyl)-7H-pyrrolo[2,3-d]pyrimidin-6-yl)ethynyl)azepan-1-yl)-4-(piperidin-1-yl)but-2-en-1-one formate] | 1000 to 10000 | 10 to 1000 | 1000 to 10000 | 
28 | COC/C=C/C(=O)N1CCC(N2CC(C#Cc3c(-c4ccc(Oc5ccccc5)cc4)c4c(N)ncnc4n3C)C2)CC1 [II-187, (E)-1-(4-(3-((4-amino-7-methyl-5-(4-phenoxyphenyl)-7H-pyrrolo[2,3-d]pyrimidin-6-yl)ethynyl)azetidin-1-yl)piperidin-1-yl)-4-methoxybut-2-en-1-one] | ≤ 10 | 10 to 1000 | ≤ 10 | 

Reference: patent US20250154154A1 (Relay Binney Street, 2nd Floor, priority 2020, published 2025)
